Measurements taken from ChEMBL document CHEMBL1130389, “Synthesis and ligand binding studies of 4'-iodobenzoyl esters of tropanes and piperidines at the dopamine transporter” (J Med Chem, 1997).

Target: Sodium-dependent dopamine transporter (Rattus norvegicus, UniProt P23977)
Test: Compound was tested for inhibitory activity to displace [3H]WIN-35428 at dopamine transporter in Rat Striatal Membranes.

Sodium-dependent dopamine transporter, sequence (P23977 whole entry): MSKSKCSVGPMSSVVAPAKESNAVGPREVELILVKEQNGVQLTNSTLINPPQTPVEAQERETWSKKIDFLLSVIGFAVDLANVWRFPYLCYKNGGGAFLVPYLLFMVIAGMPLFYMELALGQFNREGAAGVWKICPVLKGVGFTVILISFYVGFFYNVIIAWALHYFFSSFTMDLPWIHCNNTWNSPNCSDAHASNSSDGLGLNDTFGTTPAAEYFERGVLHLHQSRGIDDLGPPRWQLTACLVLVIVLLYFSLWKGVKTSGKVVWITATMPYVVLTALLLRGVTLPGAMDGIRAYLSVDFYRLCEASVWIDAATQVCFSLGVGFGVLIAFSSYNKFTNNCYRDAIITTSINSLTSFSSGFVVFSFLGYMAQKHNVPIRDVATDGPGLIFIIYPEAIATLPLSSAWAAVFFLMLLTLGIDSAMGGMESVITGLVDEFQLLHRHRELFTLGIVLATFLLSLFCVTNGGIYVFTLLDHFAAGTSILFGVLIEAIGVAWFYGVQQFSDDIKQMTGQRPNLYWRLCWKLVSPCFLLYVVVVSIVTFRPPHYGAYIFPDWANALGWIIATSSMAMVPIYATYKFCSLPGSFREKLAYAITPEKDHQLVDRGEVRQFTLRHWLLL

COC(=O)[C@@H]1C2CC[C@H](C[C@@H]1OC(=O)c1ccc(O)cc1)N2C
IC50: 153 nM

CN1CCC(OC(=O)c2ccc(I)cc2)CC1
IC50: 11600 nM

COC(=O)[C@H]1[C@@H](OC(=O)c2ccccc2O)C[C@H]2CC[C@H]1N2C
IC50: 25.2 nM

COC(=O)[C@@H]1C2CC[C@H](C[C@@H]1OC(=O)c1cccc(O)c1)N2C
IC50: 1180 nM

COC(=O)[C@H]1[C@@H](OC(=O)c2ccc(I)cc2O)C[C@H]2CC[C@H]1N2C
IC50: 215 nM

COC(=O)C1CN(C)CC[C@@H]1OC(=O)c1ccc(I)cc1 (some centres not stated)
IC50: 8060 nM

COC(=O)[C@H]1[C@@H](OC(=O)c2ccccc2OC(C)=O)CC2CC[C@H]1N2C
IC50: 69.5 nM
